# In patent US5482967A, “Condensed heterocyclic compounds, their production and use” (Takeda Chemical Industries, Ltd., priority 1992, dated 1996):
# Target: T1, acyl-CoA:cholesterol acyl transferase (ACAT) (Rattus norvegicus, UniProt Q7TQM4)
# T1 construct: small intestine mucosal microsome fraction of a 6-week-old male Sprague-Dawley rat; from tissue; host or cells: rat small intestine mucosa, microsome fraction
# T1 sequence (Q7TQM4 1-524): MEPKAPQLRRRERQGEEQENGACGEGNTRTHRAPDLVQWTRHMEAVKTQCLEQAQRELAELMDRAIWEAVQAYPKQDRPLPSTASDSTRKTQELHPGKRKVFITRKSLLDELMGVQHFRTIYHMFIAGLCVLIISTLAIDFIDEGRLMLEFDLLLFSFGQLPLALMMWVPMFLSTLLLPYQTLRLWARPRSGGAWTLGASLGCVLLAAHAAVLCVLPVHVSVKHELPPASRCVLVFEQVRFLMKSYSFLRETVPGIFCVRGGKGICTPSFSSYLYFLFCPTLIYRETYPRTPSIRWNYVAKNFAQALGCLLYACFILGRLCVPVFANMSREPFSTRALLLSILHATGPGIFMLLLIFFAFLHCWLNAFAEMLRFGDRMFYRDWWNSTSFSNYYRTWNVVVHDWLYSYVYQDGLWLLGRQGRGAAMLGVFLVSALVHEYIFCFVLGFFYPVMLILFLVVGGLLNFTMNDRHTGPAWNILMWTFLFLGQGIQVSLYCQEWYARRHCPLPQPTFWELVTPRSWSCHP
# Test: Inhibitory action against acyl-CoA:cholesterol acyl transferase (ACAT), formation of labeled cholesterol ester, small intestine mucosal microsome fraction
# Type: biochemical, male Sprague-Dawley rat
# Settings: 10^-6 M; read-out: ACAT Inhibitory Rate (%)
# Experimental: An ACAT enzyme preparation was prepared from a small intestine mucosal microsome fraction of a 6-week-old male Sprague-Dawley rat, previously fasted for 20 hours, in accordance with the method described by Heider et al. in the Journal of Lipid Research, Vol. 24, page 1127 (1982).
# ACAT activity was determined by measuring the amount of labeled cholesterol ester produced from [1-^14 C]-oleoyl-CoA and endogenous cholesterol, in accordance with the method of Helgerud et al. [Journal of Lipid Research, Vol. 22, page 271 (1981)].
row,inhibition at 1 µM [%],Compound
1,90.3,"Cc1cccc(NC(=O)[C@H]2[C@H](c3ccc(F)cc3)c3ccccc3C(=O)N2C)c1 (relative stereo) [Example 9, 3,4-trans-4-(4-Fluorophenyl)-1,2,3,4-tetrahydro-2-methyl-N-(3-methylphenyl)-1-oxo-3-isoquinolinecarboxamide]"
2,93.3,"Cc1cc2c(cc1C)N(C)C(=O)[C@@H](C(=O)Nc1ccc(F)cc1F)[C@@H]2c1ccccc1Cl (relative stereo) [Example 10, 3,4-trans-4-(2-Chlorophenyl)-N-(2,4-difluorophenyl)-1,2,3,4-tetrahydro-1,6,7-trimethyl-2-oxo-3-quinolinecarboxamide]"
3,93.8,"CC(C)c1ccc2c(c1)[C@@H](c1ccc(F)cc1)[C@H](C(=O)Nc1c(C(C)C)cccc1C(C)C)C(=O)O2 (relative stereo) [Example 13, 3,4-trans-N-[2,6-Bis(1-methylethyl)phenyl]-4-(4-fluorophenyl)-3,4-dihydro-6-(1-methylethyl)-2-oxo-2H-1-benzopyran-3-carboxamide]"
4,90.2,"Cc1cc2c(cc1C)N(C)C[C@@H](C(=O)Nc1c(C(C)C)cccc1C(C)C)[C@@H]2c1ccccc1Cl (relative stereo) [Example 15, 3,4-trans-N-[2,6-Bis(1-methylethyl)phenyl]-4-(2-chlorophenyl)-1,2,3,4-tetrahydro-1,6,7-trimethyl-3-quinolinecarboxamide]"
5,97.8,"Cc1cc2c(cc1C)N(C)C(=O)[C@@H](CC(=O)Nc1c(C(C)C)cccc1C(C)C)[C@@H]2c1ccccc1Cl (relative stereo) [Example 20, 3,4-trans-N-[2,6-Bis(1-methylethyl)phenyl]-4-(2-chlorophenyl)-1,2,3,4-tetrahydro-1,6,7-trimethyl-2-oxo-3-quinolineacetamide]"
6,99.3,"CC(C)c1cccc(C(C)C)c1NC(=O)C[C@@H]1C(=O)N(C)c2ccc(Cl)cc2[C@H]1c1ccccc1Cl (relative stereo) [Example 21, 3,4-trans-N-[2,6-Bis(1-methylethyl)phenyl]-6-chloro-4-(2-chlorophenyl)-1,2,3,4-tetrahydro-1-methyl-2-oxo-3-quinolineacetamide]"
7,97.9,"Cc1cccc(C(C)C)c1NC(=O)C[C@H]1C(=O)N(C)c2ccc(Cl)cc2[C@H]1c1ccccc1 (relative stereo) [Example 22, 3,4-cis-6-Chloro-1,2,3,4-tetrahydro-1-methyl-N-[2-methyl-6-(1-methylethyl)phenyl]-2-oxo-4-phenyl-3-quinolineacetamide]"
8,99.4,"Cc1cccc(C(C)C)c1NC(=O)C[C@@H]1C(=O)N(C)c2ccc(Cl)cc2[C@H]1c1ccccc1 (relative stereo) [Example 23, 3,4-trans-6-Chloro-1-methyl-N-[2-methyl-6-(1-methylethyl)phenyl]-2-oxo-4-phenyl-1,2,3,4-tetrahydro-3-quinolineacetamide]"
9,96.9,"COc1cc(OC)c(NC(=O)C[C@@H]2C(=O)N(C)c3ccc(Cl)cc3[C@H]2c2ccccc2)c(OC)c1 (relative stereo) [Example 25, 3,4-trans-6-Chloro-1,2,3,4-tetrahydro-1-methyl-2-oxo-4-phenyl-N-(2,4,6-trimethoxyphenyl)-3-quinolineacetamide]"
10,92,"CN1C(=O)[C@@H](CC(=O)Nc2ccc(F)cc2F)[C@H](c2ccccc2)c2cc(Cl)ccc21 (relative stereo) [Example 27, 3,4-trans-6-Chloro-N-(2,4-difluorophenyl)-1,2,3,4-tetrahydro-1-methyl-2-oxo-4-phenyl-3-quinolineacetamide]"
11,98.4,"Cc1cccc(C)c1NC(=O)C[C@@H]1C(=O)N(C)c2ccc(Cl)cc2[C@H]1c1ccccc1 (relative stereo) [Example 29, 3,4-trans-6-Chloro-N-(2,6-dimethylphenyl)-1,2,3,4-tetrahydro-1-methyl-2-oxo-4-phenyl-3-quinolineacetamide]"
12,97.5,"Cc1cc(C)c(NC(=O)C[C@@H]2C(=O)N(C)c3ccc(Cl)cc3[C@H]2c2ccccc2)c(C)c1 (relative stereo) [Example 31, 3,4-trans-6-Chloro-1,2,3,4-tetrahydro-1-methyl-2-oxo-4-phenyl-N-(2,4,6-trimethylphenyl)-3-quinolineacetamide]"
13,96,"CC(C)c1cccc(C(C)C)c1NC(=O)C[C@H]1C(=O)N(C)c2ccc(Cl)cc2[C@H]1c1ccccc1 (relative stereo) [Example 32, 3,4-cis-N-[2,6-Bis(1-methylethyl)phenyl]-6-chloro-1,2,3,4-tetrahydro-1-methyl-2-oxo-4-phenyl-3-quinolineacetamide]"

# Target: substance P receptor (Homo sapiens, UniProt P25103)
# Test: Radioligand receptor binding inhibitory assay using receptor from human lymphoblast cells (IM-9), 125I-BHSP
# Settings: IM-9 receptor, 25° C., 30 minutes
# Summary of the method: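 IM-9 lymphoblast membranes (suspended at 1.5 mg/ml protein) were incubated with 125I-BHSP (0.46 KBq) at 25 °C for 30 min in 50 mM Tris-HCl pH 7.4 with BSA, protease inhibitors and 3 mM MnCl2. Nonspecific binding was defined with 2×10^-6 M substance P. Bound radioactivity was collected on PEI-treated GF/B filters and gamma-counted.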
# Sequence of substance P receptor (P25103 whole entry): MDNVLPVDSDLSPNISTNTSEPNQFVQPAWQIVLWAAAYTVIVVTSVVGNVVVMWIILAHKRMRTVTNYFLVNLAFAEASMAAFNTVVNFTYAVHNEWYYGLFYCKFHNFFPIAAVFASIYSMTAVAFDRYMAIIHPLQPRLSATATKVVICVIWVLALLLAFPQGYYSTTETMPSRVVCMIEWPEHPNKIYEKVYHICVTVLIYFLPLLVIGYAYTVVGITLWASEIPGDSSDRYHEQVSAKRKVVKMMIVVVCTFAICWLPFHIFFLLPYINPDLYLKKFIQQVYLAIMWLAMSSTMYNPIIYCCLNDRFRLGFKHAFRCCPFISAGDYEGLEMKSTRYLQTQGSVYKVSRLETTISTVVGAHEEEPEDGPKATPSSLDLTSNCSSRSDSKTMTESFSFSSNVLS
row,IC50 [nM],Compound
1,23,"CSc1nc2ccccc2c(-c2ccccc2)c1C(=O)N(C)Cc1cc(C(F)(F)F)cc(C(F)(F)F)c1 [Example 272, N-[3,5-Bis(trifluoromethyl)benzyl]-N-methyl-2-methylthio-4-phenyl-3-quinolinecarboxamide]"
2,2,"CN(Cc1cc(C(F)(F)F)cc(C(F)(F)F)c1)C(=O)c1nc(Cl)c2ccccc2c1-c1ccc(F)cc1 [Example 273, N-[3,5-Bis(trifluoromethyl)benzyl]-1-chloro-4-(4-fluorophenyl)-N-methyl-3-isoquinolinecarboxamide]"
3,2.3,"CN(Cc1cc(C(F)(F)F)cc(C(F)(F)F)c1)C(=O)c1ncc2ccccc2c1-c1ccc(F)cc1 [Example 274, N-[3,5-Bis(trifluoromethyl)benzyl]-4-(4-fluorophenyl)-N-methyl-3-isoquinolinecarboxamide]"
4,1.9,"CN(Cc1cc(C(F)(F)F)cc(C(F)(F)F)c1)C(=O)c1nc(Cl)c2ccccc2c1-c1ccccc1 [Example 275, N-[3,5-Bis(trifluoromethyl)benzyl]-1-chloro-N-methyl-4-phenyl-3-isoquinolinecarboxamide]"
5,3,"CN(Cc1cc(C(F)(F)F)cc(C(F)(F)F)c1)C(=O)c1ncc2ccccc2c1-c1ccccc1 [Example 276, N-[3,5-Bis(trifluoromethyl)benzyl]-N-methyl-4-phenyl-3-isoquinolinecarboxamide]"
6,54,"COc1nc(C(=O)N(C)Cc2cc(C(F)(F)F)cc(C(F)(F)F)c2)c(-c2ccccc2)c2ccccc12 [Example 277, N-[3,5-Bis(trifluoromethyl)benzyl]-1-methoxy-N-methyl-4-phenyl-3-isoquinolinecarboxamide]"
7,10,"CNc1nc(C(=O)N(C)Cc2cc(C(F)(F)F)cc(C(F)(F)F)c2)c(-c2ccccc2)c2ccccc12 [Example 278, N-[3,5-Bis(trifluoromethyl)benzyl]-N-methyl-1-methylamino-4-phenyl-3-isoquinolinecarboxamide]"
8,22,"CN(Cc1cc(C(F)(F)F)cc(C(F)(F)F)c1)C(=O)c1c(-c2ccccc2)c2ccccc2c(=O)n1CC[N+](C)(C)C [Example 282, N-[3,5-Bis(trifluoromethyl)benzyl]-1,2-dihydro-N-methyl-1-oxo-4-phenyl-2-[2-(N,N,N-trimethylammonium)ethyl]-3-isoquinolinecarboxamide]"
9,9.4,"CN(Cc1cc(C(F)(F)F)cc(C(F)(F)F)c1)C(=O)c1c(-c2ccccc2)c2ccccc2c(=S)n1C [Example 285, N-[3,5-Bis(trifluoromethyl)benzyl]-1,2-dihydro-N,2-dimethyl-4-phenyl-1-thioxo-3-isoquinolinecarboxamide]"
